Key:
[1] = biological target: T1, 5-HT3-C together with nicotinic ACh receptor a6 subunit (Homo sapiens, UniProt Q15825+Q8WXA8); experiment: Two-electrode voltage clamp, oocytes injected with 5-HT3-C together with nicotinic ACh receptor α6 subunit; format: cell-based; details: 10 μM; eight days after injection; 5-HT3-C 0.67 ng, a6 1 ng/oocyte
T1 construct: Characterization of the Function of Protein Encoded by p5HT3CR in Xenopus oocvtes; expressed in transfected cells; host or cells: Xenopus laevis oocytes injected with cRNA
Experimental: Characterization of the Function of Protein Encoded by p5HT3CR in Xenopus oocvtes Xenopus laevis oocytes were prepared and injected using standard methods previously described and known in the art (Fraser et al., 1993). Ovarian lobes from adult female Xenopus laevis (Nasco, Fort Atkinson, Wis.) were teased apart, rinsed several times in nominally Ca-free saline containing (in mM): NaCl 82.5, KCl 2.5, MgCl2 1, HEPES 5, adjusted to pH 7.0 with NaOH(OR-2), and gently shaken in OR-2 containing 0.2% collagenase Type 1 (ICN Biomedicals, Aurora, Ohio) for 2–5 hours. When approximately 50% of the follicular layers were removed, Stage V and VI oocytes were selected and rinsed in media consisting of 75% OR-2 and 25% ND-96. The ND-96 contained (in mM): NaCl 100, KCl 2, MgCl2 1, CaCl2 1.8, HEPES 5, Na pyruvate 2.5, gentamicin (50 ug/ml), adjusted to pH 7.0 with NaOH. […] For in vitro transcription, pGEM HE (Liman et al., 1992) containing human 5-HT3-A (Genbank D49394) or 5-HT3-C cDNA was linearized with NheI and transcribed with T7 RNA polymerase (Stratagene) in the presence of the cap analog m7G(5′)ppp(5′)G. The synthesized cRNA was purified with a Sephadex G-50 spin column. Oocytes were injected with 50 nl of the human serotonin 5-HT3-A receptor with or without the 5-HT3-C RNA (0.02 and 0.002–0.2 ng each) or other channel or receptor subunit. Control oocytes were injected with 50 nl of water. Oocytes were incubated for 2–14 days in ND-96 before analysis for expression of the human 5-HT3-C. Incubations and collagenase digestion were carried out at room temperature. Injected oocytes were maintained in 48 well cell culture clusters (Costar, Cambridge, Mass.) at 18° C. Whole cell agonist-induced currents were measured 1–14 days after injection with a conventional two-electrode voltage clamp (GeneClamp500, Axon Instruments, Foster City, Calif.) using standard methods previously described and known in the art (Dascal, 1987). The microelectrodes were filled with 3 M KCl, which had resistances of 1 and 2 MΩ. […]

5-HT3-B and 5-HT3-C = biological target: T2, 5-HT3-B and 5-HT3-C (Homo sapiens, UniProt O95264+Q8WXA8); experiment: Two-electrode voltage clamp, oocytes co-injected with 5-HT3-B and 5-HT3-C; format: cell-based; details: 10 μM; 5-HT3-B 3.3 ng, 5-HT3-C 3.35 ng/oocyte
T2 construct: Characterization of the Function of Protein Encoded by p5HT3CR in Xenopus oocvtes; expressed in transfected cells; host or cells: Xenopus laevis oocytes co-injected with cRNAs
T2 sequence (O95264 22-441): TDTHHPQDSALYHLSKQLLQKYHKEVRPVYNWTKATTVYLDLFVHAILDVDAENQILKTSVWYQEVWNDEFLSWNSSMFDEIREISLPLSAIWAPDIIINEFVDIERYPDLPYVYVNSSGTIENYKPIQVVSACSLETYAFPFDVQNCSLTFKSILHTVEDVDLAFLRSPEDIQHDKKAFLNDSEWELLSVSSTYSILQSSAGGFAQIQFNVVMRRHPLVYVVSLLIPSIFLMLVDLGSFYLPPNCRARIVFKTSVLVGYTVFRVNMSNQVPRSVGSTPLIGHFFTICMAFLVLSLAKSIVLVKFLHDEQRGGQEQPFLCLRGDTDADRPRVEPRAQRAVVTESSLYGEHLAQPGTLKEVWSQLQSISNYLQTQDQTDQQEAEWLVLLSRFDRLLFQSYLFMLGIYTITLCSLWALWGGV
T2 sequence (Q8WXA8 28-447): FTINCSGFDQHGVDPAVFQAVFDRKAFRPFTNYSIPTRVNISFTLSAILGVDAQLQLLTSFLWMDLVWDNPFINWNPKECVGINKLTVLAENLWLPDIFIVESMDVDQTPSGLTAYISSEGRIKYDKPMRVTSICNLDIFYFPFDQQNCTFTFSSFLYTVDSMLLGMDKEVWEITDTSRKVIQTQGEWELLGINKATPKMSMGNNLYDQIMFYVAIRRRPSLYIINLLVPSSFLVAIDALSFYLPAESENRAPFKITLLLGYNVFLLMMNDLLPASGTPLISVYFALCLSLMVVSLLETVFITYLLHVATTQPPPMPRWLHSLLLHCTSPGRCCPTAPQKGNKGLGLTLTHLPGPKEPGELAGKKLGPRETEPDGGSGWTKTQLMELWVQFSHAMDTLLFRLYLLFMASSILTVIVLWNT
Experimental: Characterization of the Function of Protein Encoded by p5HT3CR in Xenopus oocvtes Xenopus laevis oocytes were prepared and injected using standard methods previously described and known in the art (Fraser et al., 1993). Ovarian lobes from adult female Xenopus laevis (Nasco, Fort Atkinson, Wis.) were teased apart, rinsed several times in nominally Ca-free saline containing (in mM): NaCl 82.5, KCl 2.5, MgCl2 1, HEPES 5, adjusted to pH 7.0 with NaOH(OR-2), and gently shaken in OR-2 containing 0.2% collagenase Type 1 (ICN Biomedicals, Aurora, Ohio) for 2–5 hours. When approximately 50% of the follicular layers were removed, Stage V and VI oocytes were selected and rinsed in media consisting of 75% OR-2 and 25% ND-96. The ND-96 contained (in mM): NaCl 100, KCl 2, MgCl2 1, CaCl2 1.8, HEPES 5, Na pyruvate 2.5, gentamicin (50 ug/ml), adjusted to pH 7.0 with NaOH. […] For in vitro transcription, pGEM HE (Liman et al., 1992) containing human 5-HT3-A (Genbank D49394) or 5-HT3-C cDNA was linearized with NheI and transcribed with T7 RNA polymerase (Stratagene) in the presence of the cap analog m7G(5′)ppp(5′)G. The synthesized cRNA was purified with a Sephadex G-50 spin column. […] Control oocytes were injected with 50 nl of water. Oocytes were incubated for 2–14 days in ND-96 before analysis for expression of the human 5-HT3-C. Incubations and collagenase digestion were carried out at room temperature. Injected oocytes were maintained in 48 well cell culture clusters (Costar, Cambridge, Mass.) at 18° C. Whole cell agonist-induced currents were measured 1–14 days after injection with a conventional two-electrode voltage clamp (GeneClamp500, Axon Instruments, Foster City, Calif.) using standard methods previously described and known in the art (Dascal, 1987). The microelectrodes were filled with 3 M KCl, which had resistances of 1 and 2 MΩ. Cells were continuously perfused with ND96 at 10 ml/min at room temperature unless indicated. Membrane voltage was clamped at −70 mV unless indicated.

T1 sequence (Q15825 26-494, one chain of several): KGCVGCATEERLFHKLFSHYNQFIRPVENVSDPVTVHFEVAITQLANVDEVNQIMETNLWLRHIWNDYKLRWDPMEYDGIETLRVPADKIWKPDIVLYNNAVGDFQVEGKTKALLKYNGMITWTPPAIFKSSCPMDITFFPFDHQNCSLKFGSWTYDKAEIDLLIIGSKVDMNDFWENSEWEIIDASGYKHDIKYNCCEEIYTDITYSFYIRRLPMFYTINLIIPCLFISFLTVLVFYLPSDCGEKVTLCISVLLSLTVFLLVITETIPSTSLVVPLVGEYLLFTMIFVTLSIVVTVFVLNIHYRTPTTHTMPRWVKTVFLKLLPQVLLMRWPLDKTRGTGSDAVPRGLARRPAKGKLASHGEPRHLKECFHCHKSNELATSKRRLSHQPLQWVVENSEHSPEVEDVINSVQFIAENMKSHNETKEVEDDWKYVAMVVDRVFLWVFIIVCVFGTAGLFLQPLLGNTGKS

SMILES: NCCc1c[nH]c2ccc(O)cc12 [5-HT, 5-hydroxytryptamine]
- responsiveness of oocytes to agonist [1]: not responsive
- responsiveness of oocytes to agonist (5-HT3-B and 5-HT3-C): unresponsive
